In patent US6750058B1, “Transfecting peptide vector, composition containing same and applications” (Commissariat a l'Energie Atomique, priority 1997, dated 2004):

Assays:
HeLa cells = assay: Transfection of HeLa cells with luciferase plasmid pGL3, light emission in cell lysates; format: cell-based; conditions: for RLU (luciferase light emission): DNA 1.5 μg; for transfection (in words): summary of Table II
Description: The HeLa cells are cultured at 37° C. in an EMEM medium supplemented with 10% foetal calf serum under an atmosphere containing 5% CO2.
1.5 to 12 μg of peptide I in 50 μl of dilution buffer (20 mM Tris, pH 7.4, 150 mM NaCl) are incubated with 1.5 μg of plasmid pGL3 in 250 μl of EMEM medium for 15 to 30 min at room temperature.
The mixture of DOTAP or of DOSPER with 1.5 μg of plasmid pGL3 is prepared according to the manufacturer's instructions (Boehringer). For the studies of the effect of the peptide on transfection in the presence of liposomes, portions of peptides are mixed with DOTAP or DOSPER in the dilution buffer defined above for 15 to 30 min at room temperature, and then 1.5 μg of plasmid pGL3 are added and incubated for 15 min at room temperature.
The transfections are carried out in plates comprising 24 wells (Beckton Dickinson) with 1.5×10^5 cells/well (confluence of about 50%) for 1 h at 37° C. After 24 h, the light emission is measured in the cell lysates with the Promega Luciferase Assay System test.

Human erythrocytes = assay: Haemolytic test; format: cell-based; conditions: 6 μg of peptide I, 10^6 erythrocytes, 37° C.
Description: Human erythrocytes are washed 3 times with PBS buffer. 10^6 erythrocytes are incubated with 6 μg of peptide I for various periods of time at 37° C. After centrifugation at 10,000 g for 5 min, the optical density of the supernatant is measured at 540 nm.

Row | Molecule | RLU (luciferase light emission) (HeLa cells; Table II, peptide 3-12 μg) | transfection (in words) (HeLa cells) | RLU (luciferase light emission) (HeLa cells; Table II, peptide 9 μg) | RLU (luciferase light emission) (HeLa cells; Table II, peptide 12 μg) | further results
1 | AKRARLSTSFNPVYPYEDES [Peptide IA] | 1 RLU/10 s/10^5 cells × 10^3 | no transfection | – | – | –
2 | A K R A R L S T S E D E S-K10 (AKRARLSTSEDESKKKKKKKKKK) [Peptide IE] | – | – | 110 RLU/10 s/10^5 cells × 10^3 | 330 RLU/10 s/10^5 cells × 10^3 | RLU (luciferase light emission) (HeLa cells; Table II, peptide 3 μg): 1 RLU/10 s/10^5 cells × 10^3; RLU (luciferase light emission) (HeLa cells; Table II, peptide 6 μg): 10 RLU/10 s/10^5 cells × 10^3; times less efficient than peptide IC (HeLa cells; transfection efficiency, Table II): approximately 30 times
3 | AKRARLSTSFNPVYPYEDES - K10 [Peptide IC] | – | – | 2870 RLU/10 s/10^5 cells × 10^3 | 1330 RLU/10 s/10^5 cells × 10^3 | RLU (luciferase light emission) (HeLa cells; Table II, peptide 3.6 μg): 1 RLU/10 s/10^5 cells × 10^3; effect of reduced number of lysines in the polylysine polymer on transfection efficiency (HeLa cells; can be compensated for by increasing the quantity of peptide): modest negative effect
4 | CC(C)C[C@H](NC(=O)[C@H](CCCNC(=N)N)NC(=O)[C@H](C)NC(=O)[C@H](CCCNC(=N)N)NC(=O)[C@H](CCCCN)NC(=O)[C@H](C)N)C(=O)N[C@@H](CO)C(=O)N[C@H](C(=O)N[C@@H](CO)C(=O)N[C@@H](Cc1ccccc1)C(=O)N[C@@H](CC(N)=O)C(=O)N1CCC[C@H]1C(=O)N[C@H](C(=O)N[C@@H](Cc1ccc(O)cc1)C(=O)N1CCC[C@H]1C(=O)N[C@@H](Cc1ccc(O)cc1)C(=O)N[C@@H](CCC(=O)O)C(=O)N[C@@H](CC(=O)O)C(=O)N[C@@H](CCC(=O)O)C(=O)N[C@@H](CO)C(=O)N[C@@H](CCCCN)C(=O)N[C@@H](CCCCN)C(=O)N[C@@H](CCCCN)C(=O)N[C@@H](CCCCN)C(=O)N[C@@H](CCCCN)C(=O)N[C@@H](CCCCN)C(=O)N[C@@H](CCCCN)C(=O)N[C@@H](CCCCN)C(=O)N[C@@H](CCCCN)C(=O)N[C@@H](CCCCN)C(=O)N[C@@H](CCCCN)C(=O)N[C@@H](CCCCN)C(=O)N[C@@H](CCCCN)C(=O)N[C@@H](CCCCN)C(=O)N[C@@H](CCCCN)C(=O)N[C@@H](CCCCN)C(=O)N[C@@H](CCCCN)C(=O)N[C@@H](CCCCN)C(=O)N[C@@H](CCCCN)C(=O)N[C@@H](CCCCN)C(=O)O)C(C)C)[C@@H](C)O [Peptide I, AKRARLSTSFNPVYPYEDES - K20] | – | – | – | – | haemolytic test result (Human erythrocytes): negative results
5 | L S T S F N P V Y P Y E D E S-K20 [Peptide ID] | 1 RLU/10 s/10^5 cells × 10^3 | no transfection | – | – | attaching and condensing the DNA and entering into the cell (HeLa cells): still capable of attaching and condensing the DNA and of entering into the cell; transport of the DNA into the nucleus (HeLa cells): incapable of transporting this DNA into the nucleus
